Format in all cases: tissue-based
Common to all, as to conditions: Muscle tissue

The species entered for assay [1] is Oryctolagus cuniculus. Briefly: Inhibition of caspase-like activity of rabbit muscle 26S proteasome after 30 mins.
The species entered for assay [2] is Oryctolagus cuniculus. Description: Inhibition of caspase-like activity of rabbit muscle 26S proteasome at 10 to 20 uM after 30 mins.
Assay [3] is filed under the species Oryctolagus cuniculus. Description: Inhibition of chymotrypsin-like activity of rabbit muscle 26S proteasome upto 500 uM after 30 mins.
The species named for assay [4] is Oryctolagus cuniculus. Description: Inhibition of trypsin-like activity of rabbit muscle 26S proteasome upto 500 uM after 30 mins.
The species entered for assay [5] is Oryctolagus cuniculus. Briefly: Inhibition of caspase-like activity of rabbit muscle 26S proteasome at 50 to 100 uM after 30 mins.
The species named for assay [6] is Oryctolagus cuniculus. Description: Inhibition of trypsin-like activity of rabbit muscle 26S proteasome at 50 to 100 uM after 30 mins.

Active and inactive are the calls of the source. The calls are words filed in the database; no cut-off is given here.

These results are taken from ChEMBL document CHEMBL1148005, “A cell-permeable inhibitor and activity-based probe for the caspase-like activity of the proteasome” (Bioorg Med Chem Lett, 2007).

For `CCCC[C@H](NC(=O)[C@@H]1CCCN1C(=O)[C@H](C)NC(C)=O)C(=O)N[C@H](/C=C/S(=O)(=O)c1ccc(O)cc1)CC(C)C`, the result in assay [1], in assay [5] and in assay [6] was Active. Besides, in assay [2], the inhibition – broadly, the share of the control response that was lost under treatment – was greater than 90%. The outcome in assay [3] and in assay [4] was inactive.
With `CCCC[C@H](NC(=O)[C@@H]1CCCN1C(=O)[C@H](C)NC(=O)CN=[N+]=[N-])C(=O)N[C@H](/C=C/S(=O)(=O)c1ccc(O)cc1)CC(C)C`, in assay [1], the result was Active.
